Assay results taken from PubChem BioAssay AID1918946 (Molecular Pharmacology Branch, DTP, NCI, 2023).

System: 885512-296-R-J2-PDC complex spheroid viability
Test: Anticancer human tumor 885512-296-R-J2-PDC patient-derived breast carcinoma cell line growth inhibition
Conditions: for IC50: curve of first compound; for viability, T/C: stronger effect = lower value; active = viability on the fitted dose curve at most 10% of control; inactive = the rest
Procedure, shortened: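 Complex spheroids of tumor cells with HUVEC and human MSCs, exposed to iadademstat combined with other agents. Each agent tested in half-log steps from near clinical Cmax (else 10 microM top), DMSO ≤0.25%.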

[1] = second compound 0.1 µM, first compound 0.0316 µM
[2] = second compound 0.1 µM, first compound 0.1 µM
[3] = second compound 0.1 µM, first compound 0.316 µM
[4] = second compound 0.1 µM, first compound 1 µM
[5] = second compound 0.1 µM, first compound 3.16 µM
[6] = second compound 0.1 µM, first compound 10 µM
[7] = second compound 0.316 µM, first compound 0.0316 µM
[8] = second compound 0.316 µM, first compound 0.1 µM
[9] = second compound 0.316 µM, first compound 0.316 µM
[10] = second compound 0.316 µM, first compound 1 µM
[11] = second compound 0.316 µM, first compound 3.16 µM
[12] = second compound 0.316 µM, first compound 10 µM
[13] = second compound 1 µM, first compound 0.0316 µM
[14] = second compound 1 µM, first compound 0.1 µM
[15] = second compound 1 µM, first compound 0.316 µM
[16] = second compound 1 µM, first compound 1 µM
[17] = second compound 1 µM, first compound 3.16 µM
[18] = second compound 1 µM, first compound 10 µM
[19] = second compound 3.16 µM, first compound 0.0316 µM
[20] = second compound 3.16 µM, first compound 0.1 µM
[21] = second compound 3.16 µM, first compound 0.316 µM
[22] = second compound 3.16 µM, first compound 1 µM
[23] = second compound 3.16 µM, first compound 3.16 µM
[24] = second compound 3.16 µM, first compound 10 µM
[25] = second compound 10 µM, first compound 0.0316 µM
[26] = second compound 10 µM, first compound 0.1 µM
[27] = second compound 10 µM, first compound 0.316 µM
[28] = second compound 10 µM, first compound 1 µM
[29] = second compound 10 µM, first compound 3.16 µM
[30] = second compound 10 µM, first compound 10 µM
[31] = second compound 0.1 µM, first compound 0.00316 µM
[32] = second compound 0.1 µM, first compound 0.01 µM
[33] = second compound 0.316 µM, first compound 0.00316 µM
[34] = second compound 0.316 µM, first compound 0.01 µM
[35] = second compound 1 µM, first compound 0.00316 µM
[36] = second compound 1 µM, first compound 0.01 µM
[37] = second compound 3.16 µM, first compound 0.00316 µM
[38] = second compound 3.16 µM, first compound 0.01 µM
[39] = second compound 10 µM, first compound 0.00316 µM
[40] = second compound 10 µM, first compound 0.01 µM
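Also: spheroids exposed to agents for 7 days before viability read.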

CC(C)c1c(-c2ccccc2)nc2c(C#N)c[nH]n2c1=O + NC1CCC(NC2CC2c2ccccc2)CC1
> 10000 nM: IC50 (second compound 0.1 µM) | IC50 (second compound 0.316 µM) | IC50 (second compound 1 µM) | IC50 (second compound 3.16 µM) | IC50 (second compound 10 µM)
inactive: viability, T/C [1] 121% | viability, T/C [2] 123% | viability, T/C [3] 137% | viability, T/C [4] 128% | viability, T/C [5] 116% | viability, T/C [6] 119% | viability, T/C [7] 133% | viability, T/C [8] 126% | viability, T/C [9] 137% | viability, T/C [10] 131% | viability, T/C [11] 118% | viability, T/C [12] 113% | viability, T/C [13] 135% | viability, T/C [14] 114% | viability, T/C [15] 129% | viability, T/C [16] 123% | viability, T/C [17] 148% | viability, T/C [18] 110% | viability, T/C [19] 111% | viability, T/C [20] 122% | viability, T/C [21] 120% | viability, T/C [22] 145% | viability, T/C [23] 115% | viability, T/C [24] 118% | viability, T/C [25] 99.3% | viability, T/C [26] 85.5% | viability, T/C [27] 97.2% | viability, T/C [28] 109% | viability, T/C [29] 104% | viability, T/C [30] 114%

CC1COCCN1c1cc(-c2ccnn2C)c2ccnc(-c3ccn[nH]3)c2n1 (stereo not given) + NC1CCC(NC2CC2c2ccccc2)CC1
< 3.16 nM: IC50 (second compound 0.1 µM) | IC50 (second compound 0.316 µM) | IC50 (second compound 1 µM) | IC50 (second compound 3.16 µM) | IC50 (second compound 10 µM)
active: viability, T/C [32] 8.7% | viability, T/C [1] 9.16% | viability, T/C [2] 5.02% | viability, T/C [3] 7.43% | viability, T/C [4] 11.5% | viability, T/C [7] 4.73% | viability, T/C [8] 4.6% | viability, T/C [9] 6.77% | viability, T/C [10] 5.15% | viability, T/C [13] 5.72% | viability, T/C [14] 5.22% | viability, T/C [15] 4.61% | viability, T/C [16] 8.49% | viability, T/C [38] 7.56% | viability, T/C [19] 3.3% | viability, T/C [20] 6.46% | viability, T/C [21] 4.63% | viability, T/C [22] 4.98% | viability, T/C [40] 5.72% | viability, T/C [25] 3.24% | viability, T/C [26] 2.51% | viability, T/C [27] 2.18% | viability, T/C [28] 2.8%
inactive: viability, T/C [31] 42% | viability, T/C [33] 42% | viability, T/C [34] 10.9% | viability, T/C [35] 38.8% | viability, T/C [36] 10.6% | viability, T/C [37] 38.8% | viability, T/C [39] 23.8%

COc1ccc([C@@H](O)c2cc(-c3ncnc4cc(N5CCOCC5)ccc34)c(F)cc2Cl)nn1 + NC1CCC(NC2CC2c2ccccc2)CC1
active: viability, T/C [18] 9.41% | viability, T/C [30] 5.65%
2660 nM: IC50 (second compound 1 µM)
2190 nM: IC50 (second compound 10 µM)
3000 nM: IC50 (second compound 0.316 µM)
3230 nM: IC50 (second compound 3.16 µM)
inactive: viability, T/C [1] 114% | viability, T/C [2] 104% | viability, T/C [3] 90.3% | viability, T/C [4] 91.8% | viability, T/C [5] 50.1% | viability, T/C [6] 12.1% | viability, T/C [7] 128% | viability, T/C [8] 119% | viability, T/C [9] 101% | viability, T/C [10] 85.2% | viability, T/C [11] 46.3% | viability, T/C [12] 11.4% | viability, T/C [13] 142% | viability, T/C [14] 102% | viability, T/C [15] 102% | viability, T/C [16] 89.8% | viability, T/C [17] 36.6% | viability, T/C [19] 117% | viability, T/C [20] 109% | viability, T/C [21] 105% | viability, T/C [22] 92.8% | viability, T/C [23] 49.7% | viability, T/C [24] 10.4% | viability, T/C [25] 130% | viability, T/C [26] 94.9% | viability, T/C [27] 87.2% | viability, T/C [28] 84.3% | viability, T/C [29] 35%
3530 nM: IC50 (second compound 0.1 µM)

O=C(C=Cn1cnc(-c2cc(C(F)(F)F)cc(C(F)(F)F)c2)n1)NNc1cnccn1 + NC1CCC(NC2CC2c2ccccc2)CC1
inactive: viability, T/C [31] 34% | viability, T/C [33] 36.5% | viability, T/C [35] 47.5% | viability, T/C [37] 26.8% | viability, T/C [39] 26.8%
< 3.16 nM: IC50 (second compound 0.1 µM) | IC50 (second compound 0.316 µM) | IC50 (second compound 1 µM) | IC50 (second compound 3.16 µM) | IC50 (second compound 10 µM)
active: viability, T/C [32] 7.13% | viability, T/C [1] 7% | viability, T/C [2] 5.05% | viability, T/C [3] 5.84% | viability, T/C [4] 8.68% | viability, T/C [34] 6.98% | viability, T/C [7] 4.07% | viability, T/C [8] 1.21% | viability, T/C [9] 8.2% | viability, T/C [10] 6.75% | viability, T/C [36] 6.6% | viability, T/C [13] 1.46% | viability, T/C [14] 1.03% | viability, T/C [15] 3.55% | viability, T/C [16] 0.74% | viability, T/C [38] 6.99% | viability, T/C [19] 1.67% | viability, T/C [20] 0.99% | viability, T/C [21] 0.76% | viability, T/C [22] 3.58% | viability, T/C [40] 7.4% | viability, T/C [25] 1.17% | viability, T/C [26] 0.87% | viability, T/C [27] 2.75% | viability, T/C [28] 0.69%
